In US20150250883A1, “COMPOSITIONS AND METHODS TO IMPROVE THE HOMING AND GRAFTING OF HEMATOPOETIC STEM CELLS” (7 HILLS PHARMA, LLC, priority 2014, published 2015):

Experiments:
[1] = tested on: Jurkat cells (integrin expressing) adhering to immobilized CS1-BSA; experiment: Static adhesion of integrin expressing cells to an immobilized integrin ligand; format: cell-based
Procedure: The effective concentration of a representative agonist compound, THI0019, in a cell carrier was evaluated by a static adhesion of integrin expressing cells to an immobilized integrin ligand in vitro, as described below.
The effective concentration of THI0019, a representative agonist compound used in this example, was evaluated by a static adhesion of integrin expressing cells to an immobilized integrin ligand. The 25 amino acid alternatively spliced sequence of fibronectin named connecting segment 1 (CS1) was synthesized and conjugated to BSA. CS1-BSA at 0.3 μg/mL in 50 μL of a representative cell carrier was added to wells of a 96-well plate and allowed to coat overnight at 4° C. The representative cell carrier is isotonic Tris Buffered Saline comprising 50 mM Tris-HCl (pH 7.4), 150 mM NaCl and 1 mM MgCl2 and is a model isotonic buffer. Plates were washed with the cell carrier and blocked with 2 wt. % BSA for 1 h. 32×10^6 of Jurkat cells were labeled for 30 minutes with calcein-AM (Molecular Probes), washed 2 times with the cell carrier, resuspended in 8 mL of the cell carrier, and divided equally between two tubes. One tube of the cell suspension was treated with 40 μL DMSO (control) and the other with 40 μL of 1 mM THI0019 in DMSO. The control containing tube and the THI0019 containing tube were each further divided equally among four eppendorf tubes (Tubes 1-4 for each group) such that each contained 4×10^6 of the cells in 1 mL of the control or the THI0019 containing cell carrier. Tube 1 from each group was not further processed (“no treatment”). Tubes 2-4 were centrifuged at 100×G for 5 min at RT. The supernatant was carefully removed with a pipet and each cell pellet was resuspended in 1 mL of the cell carrier without the agonist compound. Tube 2 was not further processed (“pellet”). Tubes 3-4 were again centrifuged at 100×G for 5 min. The supernatant was carefully removed with a pipet and each cell pellet was resuspended in 1 mL of the cell carrier without the agonist compound. Tube 3 was not further processed (“1 wash”). Tube 4 was again centrifuged at 100×G for 5 min. The supernatant was carefully removed with a pipet and the cell pellet was resuspended in 1 mL of the cell carrier without the agonist compound. Tube 4 was not further processed (“2 wash”). The final concentrations of THI0019 in the respective cell carriers for no treatment, pellet, 1 wash, and 2 wash were 10 μM, […]. […] After 30-minute incubation at 37° C., the plates were washed 3 times with binding cell carrier, the adherent cells were lysed, and fluorescence was measured on a Tecan Safire plate reader. The number of cells bound was determined by standard curves correlating fluorescence to cell number generated with the same mixtures used for the assay.

[2] = tested on: TF-1 cells on immobilized recombinant human VCAM-1; conditions: interpretation of cited detachment assay data; cited from earlier work
[3] = static adhesion, FIG. 1, printed as 'at least 1 femtomolar (fM) to 1 μM'

CCCC[C@@H](COC(=O)N(Cc1cccs1)Cc1cccs1)NC(=O)N[C@@H](CC(=O)OC)c1ccc2c(c1)OCO2 [THI0019, methyl (6S,10S)-10-(1,3-benzodioxol-5-yl)-6-butyl-3,8-dioxo-1-(2-thienyl)-2-(2-thienylmethyl)-4-oxa-2,7,9-triazadodecan-12-oate]
ability of agonist treated cells to bind to a cognate ligand after exposure ([1]; after exposure to the agonist in cell carrier): enhanced ability to bind to a cognate ligand within minutes
adhesion potential of cells after dilution/washing of compound from cell carrier ([1]; compound reduced by multiple 1000-fold serial dilutions to as low as 1 fM in cell carrier): retained the ability to exhibit enhanced adhesion potential
effective amount of the agonist compound present in the cell carrier, lower end of range [1, 3]: 1 fM
effective amount of the agonist compound present in the cell carrier, upper end of range [1, 3]: 1 µM
effect on VCAM-1 / VLA-4 interaction (applicant's reading of Vanderslice data) [2]: stabilizes the VCAM-1 and VLA-4 interaction and upon endogenous ligand binding, the compound is displaced
